In one series the test system is mPTP. As to the kind of experiment: mPTP activity assay in isolated rat liver mitochondria (Ca2+ retention, Fluo5N, FLIPR). The series is classed as biochemical. The settings on record: for mPTP Rat liver pIC50*: isolated rat liver mitochondria, average value from multiple experiments (n ≥ 2). The gist of the method:
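Freshly isolated female Sprague Dawley rat liver mitochondria in pH 7.4 buffer with 10 mM succinate, 1 μM rotenone and 2 μM Fluo5N, preincubated 10 min at RT with compound (30 μM to 1 nM). CaCl2 bolus (75 μM) added; IC50 from 10 min fluorescence, normalised to DMSO and 5 μM cyclosporin A.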

The nature of series [1]: Hepatocyte clearance assay, rat. In kind it is in vitro ADME. As to conditions: cryopreserved primary rat hepatocytes, average value from two experiments, read-out: Rat heps intrinsic clearance (CLint). The gist of the method: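 Cryopreserved rat or human hepatocytes at 0.5×10^6 viable cells/mL in L-15 medium, compound incubated at 37° C. with sampling to 120 min, in duplicate; parent remaining by LC/MS/MS. Half-life from ln(% remaining) vs time slope; CLint (μL/min/1×10^6 cells) = kV/N, V 0.2 mL, N 0.1×10^6 cells.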

As for `COCc1ccccc1NC(=O)/C=C/c1ccc2cn[nH]c2c1` [Example 29, (E)-3-(1H-indazol-6-yl)-N-(2-(methoxymethyl)phenyl)acrylamide], in the series with mPTP, the “mPTP Rat liver pIC50*” value stood at 7.1. Moreover, the hepatocyte CLint at 1 µM in series [1] is 10 µL/min/1e6 cells.

Consider `C[C@@H]1COc2ccccc2[C@@H]1NC(=O)/C=C/c1ccc2cn[nH]c2c1` (single isomer, unassigned) [Example 15d, (E)-3-(1H-indazol-6-yl)-N-(3-methylchroman-4-yl)acrylamide], for which the “mPTP Rat liver pIC50*” value in the series with mPTP was 7.6.

On to `O=C(/C=C/c1ccc2cn[nH]c2c1)N[C@@H]1CCc2ccccc21` [Example 3, (R,E)-N-(2,3-dihydro-1H-inden-1-yl)-3-(1H-indazol-6-yl)acrylamide], for which the “mPTP Rat liver pIC50*” value in the series with mPTP turned out to be 7.2. Also, the hepatocyte CLint at 1 µM in series [1] is 28 µL/min/1e6 cells.

On to `C[C@H]1Cc2ccccc2[C@@H]1NC(=O)/C=C/c1ccc2cn[nH]c2c1` (single isomer, unassigned) [Example 14c], for which the “activity in the rat liver mitochondria assay” value in the series with mPTP (comparison among Example compounds, in words) is “highest activity”. In addition, the “mPTP Rat liver pIC50*” value in the series on mPTP worked out at 7.9. The hepatocyte CLint at 1 µM in series [1] amounted to 48 µL/min/1e6 cells.
